Data: US20250144067A1, “PERSONALIZED STARVATION THERAPY FOR CANCER” (Faeth Therapeutics, Inc., priority 2021, published 2025)

Assays:
[1] = test system: NCI-H292 lung cancer cells; assay: FDA drug screening, complete media vs cholesterol-free media without statin (TABLE 1); type: cell-based, human
[2] = test system: NCI-H292 lung cancer cells; assay: FDA drug screening, complete media vs cholesterol-free media with simvastatin (TABLE 2); type: cell-based, human; conditions: for Complete Media / Cholesterol-free media + simvastatin (0.04 μM): NCI-H292 cells
[3] = Complete minus Cholesterol-free; >0 enhanced anti-cancer activity, about 0 neutral, <0 antagonist
[4] = NCI-H292 cells, cholesterol-free media without statin, FDA drug library screen
[5] = NCI-H292 cells, complete media, FDA drug library screen
[6] = FDA library drug in complete media
[7] = complete media vs cholesterol-free media + simvastatin (0.04 μM), >0 enhanced anti-cancer activity, about 0 neutral, <0 antagonist
[8] = NCI-H292 cells, cholesterol-free media without statin
[9] = FDA library drug in cholesterol-free media with simvastatin 0.04 μM
[10] = Complete minus Cholesterol-free; greater than 0 enhanced anti-cancer activity, about 0 neutral, below 0 antagonist
[11] = NCI-H292 cells, FDA drug library screen, cholesterol-free media without statin
[12] = NCI-H292 cells, FDA drug library screen, complete media
[13] = cholesterol-free media with simvastatin 0.04 μM, FDA drug library screen (TABLE 2)
[14] = complete media, FDA drug library screen (TABLE 2)
[15] = complete media minus cholesterol-free media + simvastatin (0.04 μM), >0 enhanced anti-cancer activity, about 0 neutral, <0 antagonist
[16] = cholesterol-free media with simvastatin 0.04 μM, cell growth value in FDA drug screen
[17] = complete media, cell growth value in FDA drug screen
[18] = complete media minus cholesterol-free media + simvastatin, >0 enhanced anti-cancer activity, about 0 neutral, <0 antagonist
[19] = complete vs cholesterol-free media; >0 enhanced anti-cancer activity, about 0 neutral, <0 antagonist
[20] = FDA drug library screen, cholesterol-free media with simvastatin 0.04 μM
[21] = FDA drug library screen, complete media

C[C@@H]1CC[C@H]2[C@@H](C)C(=O)O[C@@H]3O[C@@]4(C)CC[C@@H]1[C@]32OO4 [Artemisinin]
Difference [1, 3]: −0.06 | Cholesterol-free [1, 4]: 0.8489 | Complete [1, 5]: 0.7892 | Complete Media [2, 6]: 0.8603 | Difference [2, 7]: −0.76

Nc1ccc(S(N)(=O)=O)cc1 [Sulfanilamide]
Cholesterol-free [1, 8]: 1.317 | Complete ([1]; NCI-H292 cells, complete media): 1.005 | Difference ([1]; complete vs cholesterol-free media; greater than 0 enhanced anti-cancer activity, about 0 neutral, below 0 antagonists): −0.31 | Cholesterol-free media + simvastatin (0.04 μM) [2, 9]: 1.221 | Complete Media [2, 6]: 0.9133 | Difference [2, 7]: −0.31

CC(=O)N[C@@H](CC(C)C)C(=O)O [Acetylleucine]
Difference [1, 10]: −0.09 | Cholesterol-free [1, 11]: 0.9104 | Complete [1, 12]: 0.8206 | Cholesterol-free media + simvastatin (0.04 μM) [2, 13]: 0.8948 | Complete Media [2, 14]: 0.8714 | Difference [2, 15]: −0.02

CC(C(=O)O)c1ccc(C(=O)c2cccs2)cc1 (stereo not shown) [Suprofen]
Difference [1, 3]: −0.28 | Cholesterol-free [1, 8]: 1.108 | Complete ([1]; NCI-H292 cells, complete media): 0.8283 | Cholesterol-free media + simvastatin (0.04 μM) [2, 16]: 0.9436 | Complete Media [2, 17]: 0.9637 | Difference [2, 18]: 0.02

CN(C/C=C/C#CC(C)(C)C)Cc1cccc2ccccc12 [Terbinafine]
Cholesterol-free [1, 4]: 1.229 | Complete [1, 5]: 1.421 | Difference [1, 19]: 0.19 | Cholesterol-free media + simvastatin (0.04 μM) [2, 20]: 1.066 | Complete Media [2, 21]: 0.9483 | Difference [2, 7]: −0.12

C[S+](CC[C@H](N)C(=O)O)C[C@H]1O[C@@H](n2cnc3c(N)ncnc32)[C@H](O)[C@@H]1O.Cc1ccc(S(=O)(=O)[O-])cc1 (stereo partly drawn) [S-Adenosyl-L-methionine (tosylate)]
Cholesterol-free [1, 4]: 0.8583 | Complete [1, 5]: 1.043 | Difference [1, 19]: 0.19 | Cholesterol-free media + simvastatin (0.04 μM) [2, 20]: 1.239 | Complete Media [2, 21]: 1.842 | Difference [2, 18]: 0.60

NS(=O)(=O)Cc1noc2ccccc12 [Zonisamide]
Difference ([1]; Complete minus Cholesterol-free; greater than 0 enhanced anti-cancer activity, about 0 neutral, below 0 antagonists): −0.51 | Complete ([1]; NCI-H292 cells in complete media): 1.109 | Cholesterol-free media + simvastatin (0.04 μM) ([2]; drug in cholesterol-free media with simvastatin 0.04 μM): 1.285 | Complete Media ([2]; drug in complete media): 1.066 | Difference [2, 7]: −0.22

CCOC(=O)c1cncn1[C@H](C)c1ccccc1 [Etomidate]
Cholesterol-free [1, 8]: 1.122 | Complete ([1]; NCI-H292 cells, complete media): 0.7993 | Difference ([1]; complete vs cholesterol-free media; […]): −0.32 | Cholesterol-free media + simvastatin (0.04 μM) [2, 20]: 0.9001 | Complete Media [2, 21]: 1.134 | Difference ([2]; complete media minus cholesterol-free media + simvastatin, […]): 0.23

Cc1cc(C)c(NC(=O)CN(CC(=O)O)CC(=O)O)c(C)c1Br [Mebrofenin]
Difference [1, 10]: −0.13 | Cholesterol-free [1, 11]: 1.088 | Complete [1, 12]: 0.9614 | Cholesterol-free media + simvastatin (0.04 μM) [2, 9]: 1.2 | Complete Media [2, 6]: 0.8726 | Difference [2, 7]: −0.33

CCC(=O)O[C@H]1[C@H](O[C@@H]2[C@@H](C)[C@H](O[C@H]3C[C@@](C)(OC)[C@@H](O)[C@H](C)O3)[C@@H](C)C(=O)O[C@H](CC)[C@@](C)(O)[C@H](O)[C@@H](C)C(=O)[C@H](C)C[C@@]2(C)O)O[C@H](C)C[C@@H]1N(C)C [Erythromycin estolate]
Cholesterol-free [1, 4]: 0.6279 | Complete [1, 5]: 1.129 | Difference [1, 19]: 0.50 | Cholesterol-free media + simvastatin (0.04 μM) [2, 9]: 1.347 | Complete Media [2, 6]: 1.076 | Difference [2, 7]: −0.27

N#Cc1cc(-c2n[nH]c(-c3ccncc3)n2)ccn1 [Topiroxostat]
Cholesterol-free [1, 4]: 0.764 | Complete [1, 5]: 1.603 | Difference [1, 19]: 0.84 | Cholesterol-free media + simvastatin (0.04 μM) [2, 13]: 1.544 | Complete Media [2, 14]: 1.543 | Difference [2, 15]: 0.00

Cc1cccn2c(=O)c(-c3nnn[nH]3)cnc12 [Pemirolast (potassium)]
Cholesterol-free [1, 4]: 0.8951 | Complete [1, 5]: 1.011 | Difference [1, 19]: 0.12 | Cholesterol-free media + simvastatin (0.04 μM) [2, 20]: 1.053 | Complete Media [2, 21]: 0.9441 | Difference [2, 7]: −0.11

Nc1ccc(S(=O)(=O)Nc2ccnn2-c2ccccc2)cc1 [Sulfaphenazole]
Difference [1, 10]: −0.18 | Cholesterol-free [1, 11]: 1.174 | Complete [1, 12]: 0.9989 | Cholesterol-free media + simvastatin (0.04 μM) [2, 20]: 1.123 | Complete Media [2, 21]: 1.024 | Difference [2, 7]: −0.10

Aprotinin
Difference ([1]; Complete minus Cholesterol-free; […]): −0.21 | Cholesterol-free [1, 8]: 0.7012 | Complete ([1]; NCI-H292 cells, complete media): 0.4863 | Cholesterol-free media + simvastatin (0.04 μM) [2, 13]: 0.8532 | Complete Media [2, 14]: 0.8102 | Difference ([2]; complete media minus cholesterol-free media + simvastatin (0.04 μM), […]): −0.04

CC12CCC(CC1=O)C2(C)C (stereo not drawn) [(+)-Camphor]
Cholesterol-free [1, 4]: 0.9458 | Complete [1, 5]: 1.19 | Difference [1, 19]: 0.24 | Cholesterol-free media + simvastatin (0.04 μM) [2, 16]: 0.9198 | Complete Media [2, 17]: 1.05 | Difference [2, 18]: 0.13
